# Data as given in article PMC8481502, “Bovine NK-lysin peptides exert potent antimicrobial activity against multidrug-resistant Salmonella outbreak isolates” (Scientific Reports, 2021).
# Peptide text beside a SMILES is read from it.
# Columns and labels:
# [1] = system: Salmonella isolates (MDR and non-MDR); test: Growth curve assay, statements over all Salmonella isolates; type: cell-based
# Method: (§1) Overnight cultures of a MDR Salmonella outbreak isolate (SX238) and one non-MDR Salmonella isolate (SB377) were diluted 1:1000 in LB broth to obtain approximately 1 × 10^6 colony forming units per milliliter (CFU/mL). One hundred microliters of each diluted culture were transferred into honeycomb® 100-well plates (~ 1 × 10^5 CFU/well) (Growth Curves USA, Piscataway, NJ). Bovine NK-lysin peptides (NK1, NK2A, NK2B, and NK2C) were added at the final peptide concentrations of 20, 10, 5, 3.5, 2 µM in PBS (total volume = 20 µL) with a final bacterial-peptide volume of 120 µL/well. The plates were covered with lids and placed in an automated growth curve reader (Bioscreen C; Growth Curves USA, Piscataway, NJ) which was programmed for continuous shaking at 37 °C, and optical density readings at 600 nm (OD600) were recorded every hour for 24 h. […] The optical density data were analyzed, and growth curve graphs for each isolate were generated using MS Excel. […] Twenty-four-hour growth curve assays for Salmonella isolate SX238 were repeated at different bacterial CFU (~ 1 × 10^5, 1 × 10^6, 1 × 10^7, and 1 × 10^8 CFU/mL) with NK2A (5 µM and 10 µM). Sc-NK2A was included as a control for the assay.
# Swiss-Webster mice = test: Mouse study of in vivo cytotoxic effects; settings: single intraperitoneal dose 100 µg (~ 4 mg/kg) in PBS, female Swiss-Webster mice, 5 per cage, 2-week observation
# Method: To determine whether NK-lysin peptides show in vivo cytotoxic effects, a mouse study was conducted. Briefly, thirty 5–6 weeks old female Swiss-Webster mice (Envigo, Indianapolis, IN) were housed in groups in six individual cages (5 mice per cage) in ABSL2 facilities with ad libitum access to food and water in a 12-h light:dark cycle. After 1 week of acclimation, mice were intraperitoneally injected with a single dose of 100 µg of NK-lysin peptides (NK1, NK2A, NK2B, NK2C, or Sc-NK2A, ~ 4 mg/kg of body weight) in PBS (1 mL). Mice injected with PBS (1 mL) served as a negative control for the study. Mice were daily observed for any signs of toxicity and were euthanized 2 weeks post peptide administration.
# [2] = system: Salmonella SX238 outer- and inner-membranes; test: Transmission electron microscopy of peptide-treated bacteria; type: cell-based, Salmonella enterica serovar I 4,[5],12:i:-; settings: 20 µM peptide, 1 h at 37 °C, ~1 × 10^7 CFU/well in PBS
# Method: Morphological changes of bacteria following incubation with NK2A and Sc-NK2A peptides were studied by TEM. An overnight culture of Salmonella (isolate SX238) was centrifuged and resuspended in PBS. One hundred microliters of bacterial suspension were placed in a Honeycomb plate (~ 1 × 10^7 CFU/well) and NK2A, Sc-NK2A (20 µM), and PBS were added and incubated at 37 °C with continuous shaking for 1 h. The bacterial suspensions were mixed with an equal volume of 3% glutaraldehyde in 0.1 M cacodylate buffer (pH 7.4) and processed for TEM as described before. Sections were examined with a FEI Tecnai G2 Biotwin (FEI Co., Hillboro, OR) TEM and images were taken with Advanced Microscopy Technologies (AMT Inc., Danvers, […]) imaging camera.
# Salmonella SX238 = test: LIVE/DEAD BacLight staining, confocal laser scanning microscopy; type: cell-based, Salmonella enterica serovar I 4,[5],12:i:-; settings: 5 µM peptide
# Method: The viabilities of bacteria following incubation with NK2A and Sc-NK2A were determined using culture-independent (function of the membrane integrity of the bacteria) staining technique by using LIVE/DEAD™ BacLight™ bacterial viability kit (for microscopy) as described previously. Bacteria in each treatment was visualized using a Nikon A1R + laser scanning confocal microscope (Nikon Instruments, Melville, NY) as described previously. Images were obtained using plan Apo 60 × objective lens (oil) at numerical aperture 1.4. Final figures were prepared using Adobe Photoshop Elements 11.
# [3] = system: MDR Salmonella enterica serovar Heidelberg (SB395); test: Growth curve assay (automated reader, OD600) with isolate SB395; type: cell-based; settings: LB broth, 10^5 CFU/well, OD600 over 24 h
# [4] = system: Salmonella enterica serovar Typhimurium isolate UK-1 (SB377, non-MDR); test: Growth curve assay (automated reader, OD600) with isolate SB377; type: cell-based; settings: LB broth, ~1 × 10^5 CFU/well, 37 °C, OD600 every hour for 24 h; tested 2-20 µM
# Method: as §1
# [5] = system: Salmonella enterica serotype Typhimurium LPS; growth of isolate SX238; test: NK2A-LPS binding by growth curve assay after LPS preincubation; type: cell-based
# Method: The binding of NK2A to Salmonella LPS was studied by growth curve assay and TEM. Five micromolar NK2A (~ 2.2 µg/well) was preincubated with different amounts of Salmonella enterica serotype Typhimurium LPS (Sigma; LPS = 0, 0.5, 1.1, 2.2, 4.4, 8.8 µg/well, final volume of LPS and NK2A = 20 µL) at 37 °C in a honeycomb plate with continuous shaking for 30 min. Overnight Salmonella (isolate SX238) culture was diluted to ~ 1 × 10^6 CFU/mL and 100 µL was transferred into wells containing NK2A-LPS and further incubated at 37 °C with continuous shaking for 24 h. The optical density (OD600) data were analyzed, and growth curve graphs were generated.
# [6] = system: MDR Salmonella outbreak isolate SX238 cytoplasmic membrane; test: Propidium iodide (PI) uptake assay; type: cell-based, Salmonella enterica serovar I 4,[5],12:i:-; settings: 5 µM peptide, 30 min, ~1 × 10^7 CFU/well in PBS, 3 µM PI
# Method: The kinetics of NK2A-induced damage to Salmonella cell membranes were evaluated using PI uptake assay as described previously. Briefly, an overnight culture of MDR Salmonella outbreak isolate SX238 was centrifuged, washed with PBS, and resuspended in PBS. Ninety microliters of bacterial suspension was transferred to a 96-well opaque plate (~ 1 × 10^7 CFU/well), mixed with 10 µL of PI (final concentration = 3 µM) and incubated at 37 °C for 5 min. PBS, polymyxin B (2, 4, 25, 50 and 100 µg/mL), NK2A or Sc-NK2A (both at 2 and 5 µM) were added and PI fluorescent intensities in each well was continuously measured (15 s intervals, flex mode) using a FlexStation 3 multi-mode (fluorescent) microplate reader (Molecular Devices LLC., San Jose, CA) for up to 6 h. The excitation and emission wavelengths for PI was set up at 530 nm and 620 nm, respectively.
# [7] = system: MDR Salmonella enterica serovar Typhimurium DT193 strain 1434 (SX231); test: Growth curve assay (automated reader, OD600) with isolate SX231; type: cell-based; settings: LB broth, 10^5 CFU/well, OD600 over 24 h
# [8] = system: MDR Salmonella enterica serovar I 4,[5],12:i:- strain USDA15WA-1 (SX238); test: Growth curve assay (automated reader, OD600) with isolate SX238; type: cell-based
# Method: as §1
smiles,measurement,setting,value
CC[C@H](C)[C@H](NC(=O)[C@H](CO)NC(=O)[C@H](CCCCN)NC(=O)[C@H](CS)NC(=O)[C@H](CC(C)C)NC(=O)CNC(=O)[C@H](CCCCN)NC(=O)[C@H](CC(C)C)NC(=O)[C@H](CC(C)C)NC(=O)[C@H](CCCNC(=N)N)NC(=O)[C@H](CCSC)NC(=O)[C@H](CCCCN)NC(=O)[C@H](CO)NC(=O)[C@H](CS)NC(=O)[C@H](CCSC)NC(=O)[C@H](CCCCN)NC(=O)[C@H](CO)NC(=O)[C@H](C)NC(=O)[C@@H](NC(=O)[C@H](CCC(=O)O)NC(=O)[C@@H](NC(=O)[C@@H](NC(=O)[C@@H](N)[C@@H](C)O)C(C)C)[C@@H](C)CC)C(C)C)C(=O)N[C@H](C(=O)N[C@@H](CCCCN)C(=O)N[C@@H](CCCNC(=N)N)C(=O)N[C@@H](Cc1ccccc1)C(=O)N[C@@H](CC(C)C)C(=O)N[C@@H](CCCNC(=N)N)C(=O)N[C@@H](CCCNC(=N)N)C(=O)O)[C@@H](C)O [NK2A] (H-TVIEVASKMCSKMRLLKGLCKSITKRFLRR-OH; N-terminus and C-terminus assumed),concentrations able to inhibit growth of Salmonella during 24 h,"[1]; 24 h incubation in LB broth, MDR and non-MDR isolates",3.5 to 5 µM
same,final concentration to which three of the four isolates were sensitive,"[1]; SX238, SX231, SB395, SB377 at 10^5 CFU/well, the three isolates are not named",3.5 µM
same,signs of toxicity or death,Swiss-Webster mice,did not show signs of toxicity or death
same,ultrastructural changes to bacterial membranes,[2],extensively damaged outer- and inner-membranes and cytosolic content leakage
same,live/dead staining result (SYTO 9 / PI),Salmonella SX238,many dead (red) Salmonella SX238 were detected
same,peptide concentration at which growth of SB395 was inhibited,[3],≥ 5 µM
same,peptide concentration at which growth of SB377 was completely inhibited,[4],≥ 5 µM
same,delayed bacterial growth recovery after LPS preincubation,[5]; 5 µM (2.2 µg) NK2A preincubated 30 min with 1.1 µg and 2.2 µg LPS,5 to 10 h
same,effect of LPS preincubation on antimicrobial activity,[5]; 5 µM (2.2 µg) NK2A preincubated 30 min with 4.4 µg and 8.8 µg LPS,completely inhibited the antimicrobial activity of NK2A
same,PI uptake signal,[6],rapid PI uptake was observed
same,peptide concentration at which growth of SX231 was inhibited,[7],≥ 5 µM
same,duration of growth inhibition at 2 µM,"[8]; 2 µM peptide, LB broth (Fig. 1a)",up to 8 h
same,growth inhibition of SX238 at different bacterial CFU,"[8]; 10 µM peptide, 10^5–7 CFU/mL (10^4–6 CFU/well), 24 h growth period",completely inhibited growth
same,duration of partial growth inhibition at high inoculum,"[8]; 10 µM peptide, 10^8 CFU/mL (10^7 CFU/well)",up to 9 h
